Measured values published in article PMC6333442, “Conserved allosteric pathways for activation of TRPV3 revealed through engineering vanilloid-sensitivity” (eLife, 2019).
Numbering of substitutions follows the chain as printed.

Legend:
TRPV3-6M + V587L = molecular target: T1, TRPV3-6M + V587L (Mus musculus, UniProt Q8K424, A560T/F522S/H523E/L557M/Q580E/V587L/W521Y); assay: Two-electrode voltage clamp, TRPV3-6M + V587L, RTx concentrations; format: cell-based
T1 construct: expressed in transfected cells; host or cells: Xenopus laevis oocytes
T1 sequence (Q8K424 1-791 W521Y/F522S/H523E/L557M/A560T/Q580E/V587L): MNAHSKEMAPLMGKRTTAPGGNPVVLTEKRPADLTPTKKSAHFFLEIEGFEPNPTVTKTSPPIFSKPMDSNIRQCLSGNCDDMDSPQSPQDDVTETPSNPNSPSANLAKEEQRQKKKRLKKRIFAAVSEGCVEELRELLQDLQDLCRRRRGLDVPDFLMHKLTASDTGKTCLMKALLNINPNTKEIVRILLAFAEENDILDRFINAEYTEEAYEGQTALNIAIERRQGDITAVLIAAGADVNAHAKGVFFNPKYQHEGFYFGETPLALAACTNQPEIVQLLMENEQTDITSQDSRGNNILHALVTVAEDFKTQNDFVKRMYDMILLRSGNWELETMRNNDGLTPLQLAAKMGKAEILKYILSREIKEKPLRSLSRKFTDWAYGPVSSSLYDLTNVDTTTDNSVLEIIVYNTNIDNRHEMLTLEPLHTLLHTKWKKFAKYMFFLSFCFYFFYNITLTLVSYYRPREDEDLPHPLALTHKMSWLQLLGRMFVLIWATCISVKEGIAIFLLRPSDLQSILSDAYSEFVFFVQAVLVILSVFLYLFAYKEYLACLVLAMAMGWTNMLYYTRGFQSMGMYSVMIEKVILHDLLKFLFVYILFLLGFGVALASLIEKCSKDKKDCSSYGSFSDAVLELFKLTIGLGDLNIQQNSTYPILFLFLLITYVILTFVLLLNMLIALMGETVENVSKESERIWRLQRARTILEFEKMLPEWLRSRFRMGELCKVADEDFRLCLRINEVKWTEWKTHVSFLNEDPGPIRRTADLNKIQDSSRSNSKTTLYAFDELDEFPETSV
Protocol: (§1) All channel constructs were expressed in Xenopus laevis oocytes and studied using the two-electrode voltage clamp technique (TEVC) following 1–4 days of incubation after cRNA injection. The animal care and experimental procedures were performed in accordance with the Guide for the Care and Use of Laboratory Animals and were approved by the Animal Care and Use Committee of the National Institute of Neurological Disorders and Stroke (Animal protocol number 1253–17). Oocytes were removed surgically and incubated with agitation for 1 hr in a solution containing (in mM) 82.5 NaCl, 2.5 KCl, 1 MgCl2, 5 HEPES, pH 7.6 (with NaOH), and collagenase (2 mg/ml; Worthington Biochemical, Lakewood, NJ). Defolliculated oocytes were injected with cRNA for each of the constructs and incubated at 17°C in a solution containing (in mM) 96 NaCl, 2 KCl, 1 MgCl2, 1.8 CaCl2, 5 HEPES, pH 7.6 (with NaOH), and gentamicin (50 μg/ml, GIBCO-BRL, Gaithersburg, MD). Oocyte membrane voltage was controlled using an OC-725C oocyte clamp (Warner Instruments, Hamden, CT). Data were filtered at 1–3 kHz and digitized at 20 kHz using pClamp software (Molecular Devices, Sunnyvale, CA) and a Digidata 1440A digitizer (Axon Instruments). Microelectrode resistances were 0.1–1 MΩ when filled with 3 M KCl. For recording TRP channel currents, the external recording solution contained (in mM) 100 KCl, 10 HEPES, pH 7.6 (with KOH). […]

TRPV3-6M/4PM = molecular target: T2, TRPV3-6M/4PM (Mus musculus, UniProt Q8K424, A560T/F522S/F625L/F656I/F666Y/H523E/L557M/Q580E/V587L/W521Y); assay: Two-electrode voltage clamp, TRPV3-6M/4PM in oocytes; format: cell-based; conditions: RTx 100 nM, 2-APB 3 mM, +60 mV
T2 construct: expressed in transfected cells; host or cells: Xenopus laevis oocytes
T2 sequence (Q8K424 1-791 W521Y/F522S/H523E/L557M/A560T/Q580E/V587L/F625L/F656I/F666Y): T1 sequence (Q8K424 1-791 W521Y/F522S/H523E/L557M/A560T/Q580E/V587L) with F625L, F656I, F666Y
Protocol: as §1

C=C(C)[C@]12C[C@@H](C)[C@@]34O[C@](Cc5ccccc5)(O[C@@H]1[C@@H]3C=C(COC(=O)Cc1ccc(O)c(OC)c1)C[C@]1(O)C(=O)C(C)=C[C@@H]41)O2 [RTx, resiniferatoxin]
dissociation of RTx (TRPV3-6M + V587L): exceedingly slow | response to RTx compared with maximal response to 2-APB (TRPV3-6M/4PM): similar
